This experiment concerns the target IRAK4 (Homo sapiens (Human), UniProt Q9NWZ3). The experiment can be described thus: IRAK-4 AlphaScreen biochemical kinase assay. The note with it: 1 nM IRAK4, 1 mM ATP, 3.5 h at RT. The procedure, abridged:
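AlphaScreen read-out: streptavidin beads bind the biotinylated peptide and protein A beads bind the anti-phosphothreonine antibody, so energy transfer reports phosphorylation of the peptide. The kinase is human IRAK-4.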
A general note: In Alpha technology, singlet oxygen from a donor bead excites a nearby acceptor bead.

pIC50: −log10 of the molar value. Where only a bound is given, the exact number is not on record here.

Chain of IRAK4 (Q9NWZ3 whole entry, species assumed): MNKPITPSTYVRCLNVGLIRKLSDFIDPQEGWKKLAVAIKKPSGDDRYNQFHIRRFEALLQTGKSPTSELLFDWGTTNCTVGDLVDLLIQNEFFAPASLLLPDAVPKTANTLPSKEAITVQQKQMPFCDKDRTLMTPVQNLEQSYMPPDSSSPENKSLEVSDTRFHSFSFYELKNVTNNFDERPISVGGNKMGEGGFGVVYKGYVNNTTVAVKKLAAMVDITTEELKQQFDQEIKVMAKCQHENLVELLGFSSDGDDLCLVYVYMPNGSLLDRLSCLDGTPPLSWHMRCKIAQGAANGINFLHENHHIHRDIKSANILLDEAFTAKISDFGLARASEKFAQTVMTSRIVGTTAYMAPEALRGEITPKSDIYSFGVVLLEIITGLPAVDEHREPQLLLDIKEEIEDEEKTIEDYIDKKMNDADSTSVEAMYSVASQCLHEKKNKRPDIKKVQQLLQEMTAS

With `COc1cc(-c2cccc(C(C)N)n2)cc2c1cnn2-c1cccc(C)n1` (centres unmarked) [Example 246, 1-(6-(4-methoxy-1-(6-methylpyridin-2-yl)-1H-indazol-6-yl)pyridin-2-yl)ethanamine], the negative-log IC50 (pIC50) was over 7.00.

As to `Cc1cccc(-n2ncc3ccc(-c4cccc(C(N)CCO)n4)cc32)n1` (centres unmarked) [Example 247, 3-amino-3-(6-(1-(6-methylpyridin-2-yl)-1H-indazol-6-yl)pyridin-2-yl)propan-1-ol], the pIC50 is over 7.00.

Molecule `Cc1cccc(-n2ncc3ccc(-c4cccc(C(N)=O)n4)cc32)n1` [Example 248, 6-(1-(6-methylpyridin-2-yl)-1H-indazol-6-yl)picolinamide] gave a negative logarithm of the IC50 (pIC50) of 6.00 to 7.00.

Regarding `Cc1cccc(-n2ncc3ccc(-c4cccc(CC#N)n4)cc32)n1` [Example 249, 2-(6-(1-(6-methylpyridin-2-yl)-1H-indazol-6-yl)pyridin-2-yl)acetonitrile], the negative-log IC50 (pIC50) was 6.00 to 7.00.

Molecule `Cc1cccc(-n2ncc3c(O)cc(-c4cccc(C(C)N)n4)cc32)n1` (centres unmarked) [Example 250, 6-(6-(1-aminoethyl)pyridin-2-yl)-1-(6-methylpyridin-2-yl)-1H-indazol-4-ol] showed a pIC50 of over 7.00.

In turn, `Cc1cccc(-n2ncc3c(OCC4CC4)cc(-c4cccc(C(C)N)n4)cc32)n1` (centres unmarked) [Example 251] gave a pIC50 of 6.00 to 7.00.

The molecule `Cc1cccc(-n2ncc3ccc(-c4csc(CN)n4)cc32)n1` [Example 252, (4-(1-(6-methylpyridin-2-yl)-1H-indazol-6-yl)thiazol-2-yl)methanamine] had a pIC50 of 6.00 to 7.00.

In turn, `CC(=O)NCc1cccc(-c2ccc3cnn(-c4cccc(C)n4)c3c2)n1` [Example 253, N-((6-(1-(6-methylpyridin-2-yl)-1H-indazol-6-yl)pyridin-2-yl)methyl)acetamide] had a negative-log IC50 (pIC50) of 5.00 to 6.00.

For `Cc1cccc(-n2ncc3ccc(-c4cccc(CCN)n4)cc32)n1` [Example 254, 2-(6-(1-(6-methylpyridin-2-yl)-1H-indazol-6-yl)pyridin-2-yl)ethanamine], the negative logarithm of the IC50 (pIC50) was 6.00 to 7.00.

The molecule `Cc1cccc(-n2ncc3ccc(-c4ccc(C(F)(F)F)c(C(C)N)n4)cc32)n1` (centres unmarked) [Example 255, 1-(6-(1-(6-methylpyridin-2-yl)-1H-indazol-6-yl)-3-(trifluoromethyl)pyridin-2-yl)ethanamine] showed a negative-log IC50 (pIC50) of 6.00 to 7.00.

`Cc1cccc(-n2ncc3ccc(-c4cc(N)cc(C(C)N)n4)cc32)n1` (centres unmarked) [Example 256, 2-(1-aminoethyl)-6-(1-(6-methylpyridin-2-yl)-1H-indazol-6-yl)pyridin-4-amine]: the pIC50 is over 7.00.

Take `Cc1cccc(-n2ncc3ccc(-c4cn(C)c(CO)n4)cc32)n1` [Example 257, (1-methyl-4-(1-(6-methylpyridin-2-yl)-1H-indazol-6-yl)-1H-imidazol-2-yl)methanol]: the pIC50 was over 7.00.

Regarding `Cc1cccc(-n2ncc3ccc(-c4cccc(C(N)C#N)n4)cc32)n1` (centres unmarked) [Example 258, 2-amino-2-(6-(1-(6-methylpyridin-2-yl)-1H-indazol-6-yl)pyridin-2-yl)acetonitrile], the pIC50 was 6.00 to 7.00.

The molecule `Cc1cccc(-n2ncc3ccc(-c4cccc(C(N)C(F)(F)F)n4)cc32)n1` (centres unmarked) [Example 259, 2,2,2-trifluoro-1-(6-(1-(6-methylpyridin-2-yl)-1H-indazol-6-yl)pyridin-2-yl)ethanamine] gave a pIC50 of 6.00 to 7.00.

`Cc1cccc(-n2ncc3ccc(-c4cccc(C(N)CC(=O)O)n4)cc32)n1` (centres unmarked) [Example 260, 3-amino-3-(6-(1-(6-methylpyridin-2-yl)-1H-indazol-6-yl)pyridin-2-yl)propanoic acid] had a pIC50 of 6.00 to 7.00.

In turn, `COC(=O)CC(N)c1cccc(-c2ccc3cnn(-c4cccc(C)n4)c3c2)n1` (centres unmarked) [Example 261, methyl 3-amino-3-(6-(1-(6-methylpyridin-2-yl)-1H-indazol-6-yl)pyridin-2-yl)propanoate] had a negative-log IC50 (pIC50) of over 7.00.

Regarding `Cc1cccc(-n2ncc3ccc(-c4cccc(C5(N)CC5)n4)cc32)n1` [Example 262, 1-(6-(1-(6-methylpyridin-2-yl)-1H-indazol-6-yl)pyridin-2-yl)cyclopropanamine], the pIC50 was 6.00 to 7.00.

`CCC(N)c1cccc(-c2ccc3cnn(-c4cccc(C)n4)c3c2)n1` (centres unmarked) [Example 263, 1-(6-(1-(6-methylpyridin-2-yl)-1H-indazol-6-yl)pyridin-2-yl)propan-1-amine] had a pIC50 of over 7.00.

For `CCC[C@@H](N)c1cccc(-c2ccc3cnn(-c4cccc(C)n4)c3c2)n1` [Example 264, (R)-1-(6-(1-(6-methylpyridin-2-yl)-1H-indazol-6-yl)pyridin-2-yl)butan-1-amine], the pIC50 is over 7.00.

As to `CCC[C@H](N)c1cccc(-c2ccc3cnn(-c4cccc(C)n4)c3c2)n1` [Example 265, (S)-1-(6-(1-(6-methylpyridin-2-yl)-1H-indazol-6-yl)pyridin-2-yl)butan-1-amine], the negative-log IC50 (pIC50) is over 7.00.

`Cc1cccc(-n2ncc3ccc(-c4ccc(Cl)c(C(C)N)n4)cc32)n1` (centres unmarked) [Example 266, 1-(3-chloro-6-(1-(6-methylpyridin-2-yl)-1H-indazol-6-yl)pyridin-2-yl)ethanamine] had a negative-log IC50 (pIC50) of 6.00 to 7.00.

With `Cc1cccc(-n2ncc3ccc(-c4cccc(C(N)C(N)=O)n4)cc32)n1` (centres unmarked) [Example 267, 2-amino-2-(6-(1-(6-methylpyridin-2-yl)-1H-indazol-6-yl)pyridin-2-yl)acetamide], the pIC50 is 6.00 to 7.00.

For the molecule `CCCC(N)c1cccc(-c2ccc3cnn(-c4cccc(C(F)(F)F)n4)c3c2)n1` (centres unmarked) [Example 268, 1-(6-(1-(6-(trifluoromethyl)pyridin-2-yl)-1H-indazol-6-yl)pyridin-2-yl)butan-1-amine], the negative logarithm of the IC50 (pIC50) is over 7.00.

Take `CCC(N)c1cccc(-c2ccc3cnn(-c4cccc(C(N)=O)n4)c3c2)n1` (centres unmarked) [Example 269, 6-(6-(6-(1-aminopropyl)pyridin-2-yl)-1H-indazol-1-yl)picolinamide]: the pIC50 is over 7.00.

Turning to `CC(N)c1cc(N)cc(-c2ccc3cnn(-c4cccc(C(F)(F)F)n4)c3c2)n1` (centres unmarked) [Example 270, 2-(1-aminoethyl)-6-(1-(6-(trifluoromethyl)pyridin-2-yl)-1H-indazol-6-yl)pyridin-4-amine], the negative logarithm of the IC50 (pIC50) was over 7.00.

`Cc1cccc(-n2ncc3ccc(-c4cccc(C(N)CO)n4)cc32)n1` (centres unmarked) [Example 271, 2-amino-2-(6-(1-(6-methylpyridin-2-yl)-1H-indazol-6-yl)pyridin-2-yl)ethanol] gave a pIC50 of over 7.00.

In turn, `COC(=O)C(N)c1cccc(-c2ccc3cnn(-c4cccc(C)n4)c3c2)n1` (centres unmarked) [Example 272, methyl 2-amino-2-(6-(1-(6-methylpyridin-2-yl)-1H-indazol-6-yl)pyridin-2-yl)acetate] had a pIC50 of 6.00 to 7.00.

In turn, `Cc1cccc(-n2ncc3ccc(-c4cccc(C(N)C(=O)O)n4)cc32)n1` (centres unmarked) [Example 273, 2-amino-2-(6-(1-(6-methylpyridin-2-yl)-1H-indazol-6-yl)pyridin-2-yl)acetic acid] had a pIC50 of over 7.00.

Regarding `CCCC(N)c1cccc(-c2ccc3cnn(-c4cccc(C(N)=O)n4)c3c2)n1` (centres unmarked) [Example 274, 6-(6-(6-(1-aminobutyl)pyridin-2-yl)-1H-indazol-1-yl)picolinamide], the pIC50 was over 7.00.

In turn, `CC(N)c1cccc(-c2ccc3cnn(-c4cccc(C(C)(C)O)n4)c3c2)n1` (centres unmarked) [Example 278, 2-(6-(6-(6-(1-aminoethyl)pyridin-2-yl)-1H-indazol-1-yl)pyridin-2-yl)propan-2-ol] gave a negative-log IC50 (pIC50) of over 7.00.

In turn, `COCc1cccc(-n2ncc3ccc(-c4cccc(C(C)N)n4)cc32)n1` (centres unmarked) [Example 279, 1-(6-(1-(6-(methoxymethyl)pyridin-2-yl)-1H-indazol-6-yl)pyridin-2-yl)ethanamine] showed a negative-log IC50 (pIC50) of over 7.00.

Consider `CCCC(N)c1cccc(-c2ccc3cnn(-c4cccc(CO)n4)c3c2)n1` (centres unmarked) [Example 280, (6-(6-(6-(1-aminobutyl)pyridin-2-yl)-1H-indazol-1-yl)pyridin-2-yl)methanol], for which the pIC50 is over 7.00.

For the molecule `Cc1cccc(-n2ncc3ccc(-c4ccc(C)c(C(C)N)n4)cc32)n1` (centres unmarked) [Example 281, 1-(3-methyl-6-(1-(6-methylpyridin-2-yl)-1H-indazol-6-yl)pyridin-2-yl)ethanamine], the negative logarithm of the IC50 (pIC50) was over 7.00.

For the molecule `Cc1csc(-n2ncc3ccc(-c4cccc(C(C)N)n4)cc32)c1` (centres unmarked) [Example 282, 1-(6-(1-(4-methylthiophen-2-yl)-1H-indazol-6-yl)pyridin-2-yl)ethanamine], the pIC50 was 5.00 to 6.00.

As for `CCCc1cccc(-n2ncc3ccc(-c4cccc(C(C)N)n4)cc32)n1` (centres unmarked) [Example 283, 1-(6-(1-(6-propylpyridin-2-yl)-1H-indazol-6-yl)pyridin-2-yl)ethanamine], the pIC50 is over 7.00.

Take `CC(N)c1cccc(-c2ccc3cnn(-c4cccc(C(C)O)n4)c3c2)n1` (centres unmarked) [Example 284, 1-(6-(6-(6-(1-aminoethyl)pyridin-2-yl)-1H-indazol-1-yl)pyridin-2-yl)ethanol]: the pIC50 was over 7.00.

Turning to `Cc1cccc(-n2ncc3ccc(-c4coc(CN)n4)cc32)n1` [Example 285, (4-(1-(6-methylpyridin-2-yl)-1H-indazol-6-yl)oxazol-2-yl)methanamine], the pIC50 was 5.00 to 6.00.

In turn, `CC(N)c1cccc(-c2ccc3cnn(-c4cccc(C(C)(C)C)n4)c3c2)n1` (centres unmarked) [Example 286, 1-(6-(1-(6-(tert-butyl)pyridin-2-yl)-1H-indazol-6-yl)pyridin-2-yl)ethanamine] had a negative logarithm of the IC50 (pIC50) of over 7.00.

`CC(N)c1cccc(-c2ccc3cnn(-c4cccc(CN)n4)c3c2)n1` (centres unmarked) [Example 287, 1-(6-(1-(6-(aminomethyl)pyridin-2-yl)-1H-indazol-6-yl)pyridin-2-yl)ethanamine] had a negative-log IC50 (pIC50) of 6.00 to 7.00.

`CC(N)c1cccc(-c2ccc3cnn(-c4cccc(C(C)(C)C#N)n4)c3c2)n1` (centres unmarked) [Example 288, 2-(6-(6-(6-(1-aminoethyl)pyridin-2-yl)-1H-indazol-1-yl)pyridin-2-yl)-2-methylpropanenitrile]: the negative logarithm of the IC50 (pIC50) is 6.00 to 7.00.

The molecule `CC(N)c1cccc(-c2ccc3cnn(-c4cccc(C(C)(C)S(C)(=O)=O)n4)c3c2)n1` (centres unmarked) [Example 289, 1-(6-(1-(6-(2-(methylsulfonyl)propan-2-yl)pyridin-2-yl)-1H-indazol-6-yl)pyridin-2-yl)ethanamine] showed a negative-log IC50 (pIC50) of 5.00 to 6.00.

Usually pIC50 stands for −log10 of the IC50, conventionally taken in molar units. A higher pIC50 goes with a low IC50.

The values are drawn from US10246456B2, “IRAK4 inhibiting agents” (BIOGEN MA INC., priority 2014, dated 2019).
